Data taken from ChEMBL document CHEMBL1201862, “PubChem BioAssay data set” (2004).
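1) Cells in 96-well plates. 2) Compound, 48 h, 5 concentrations. 3) Linear interpolation between surrounding doses. 4) Unreached endpoint = highest concentration. Here, GI50 denotes the concentration required for 50% inhibition of growth.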 Active and inactive are the calls of the source. No stated cut-off is given here; in the data, active = GI50 up to about 1.1 µM and inactive = higher.

Experiments:
Experiment in all cases: NCI tumour cell line growth inhibition, 48 h
OVCAR-4 = tested on: OVCAR-4
RPMI-8226 = tested on: RPMI-8226
TK-10 = tested on: TK-10
SK-MEL-28 = tested on: SK-MEL-28
NCI-H460 = tested on: NCI-H460
HCC 2998 = tested on: HCC 2998
A549 = tested on: A549
HOP-92 = tested on: HOP-92
HOP-62 = tested on: HOP-62
MDA-N = tested on: MDA-N
SK-MEL-5 = tested on: SK-MEL-5
IGROV-1 = tested on: IGROV-1
HCT-15 = tested on: HCT-15
A498 = tested on: A498
SK-OV-3 = tested on: SK-OV-3
Malme-3M = tested on: Malme-3M
MDA-MB-231 = tested on: MDA-MB-231
SF-268 = tested on: SF-268
PC-3 = tested on: PC-3
UACC-257 = tested on: UACC-257

Compound	GI50 (OVCAR-4)	GI50 (RPMI-8226)	GI50 (TK-10)	GI50 (SK-MEL-28)	GI50 (NCI-H460)	GI50 (HCC 2998)	GI50 (A549)	GI50 (HOP-92)	GI50 (HOP-62)	GI50 (MDA-N)	GI50 (SK-MEL-5)	GI50 (IGROV-1)	GI50 (HCT-15) [µM]	GI50 (A498)	GI50 (SK-OV-3)	GI50 (Malme-3M)	GI50 (MDA-MB-231)	GI50 (SF-268)	GI50 (PC-3)	GI50 (UACC-257)
N#CC12C(=O)N3C(=NC(c4ccco4)NC3c3ccco3)C1(C#N)C(c1ccco1)NC1=C2CCCC1 (centres undefined)	> 100 µM (inactive)	> 100 µM (inactive)	> 100 µM (inactive)	> 100 µM (inactive)	> 100 µM (inactive)	> 100 µM (inactive)	> 100 µM (inactive)	> 100 µM (inactive)	> 100 µM (inactive)	> 100 µM (inactive)	> 100 µM (inactive)	> 100 µM (inactive)	> 100	> 100 µM (inactive)	> 100 µM (inactive)	> 100 µM (inactive)	> 100 µM (inactive)	> 100 µM (inactive)	> 100 µM (inactive)	> 100 µM (inactive)
Cc1nnc(N)s/c1=N/O	> 100 µM (inactive)	> 100 µM (inactive)	> 100 µM (inactive)	> 100 µM (inactive)	> 100 µM (inactive)	> 100 µM (inactive)	> 100 µM (inactive)	> 100 µM (inactive)	> 100 µM (inactive)	> 100 µM (inactive)	56.9 µM (inactive)	> 100 µM (inactive)	> 100	> 100 µM (inactive)	> 100 µM (inactive)	> 100 µM (inactive)	> 100 µM (inactive)	> 100 µM (inactive)	> 100 µM (inactive)	56.9 µM (inactive)
CCOP1(=O)CC(C)=C(Cl)C(OC)C1 (centres undefined)	> 100 µM (inactive)	> 100 µM (inactive)	> 100 µM (inactive)	> 100 µM (inactive)	> 100 µM (inactive)	> 100 µM (inactive)	> 100 µM (inactive)	> 100 µM (inactive)	> 100 µM (inactive)	> 100 µM (inactive)	> 100 µM (inactive)	> 100 µM (inactive)	> 100	> 100 µM (inactive)	> 100 µM (inactive)	> 100 µM (inactive)	> 100 µM (inactive)	> 100 µM (inactive)	> 100 µM (inactive)	> 100 µM (inactive)
O=C1OCC2OC(=O)c3cc(O)c(O)c(O)c3-c3c(O)c(O)c(O)c4c3C(=O)OC(C2OC(=O)c2cc(O)c(O)c(O)c2-c2c1cc(O)c(O)c2O)C1OC(=O)c2c-4c(O)c(O)c(O)c2[C@@H]1C(O)C(O)C(O)C(O)CO (some centres undefined)	16.6 µM (inactive)	29 µM (inactive)		49.1 µM (inactive)	17.6 µM (inactive)	21.6 µM (inactive)	16.4 µM (inactive)	18.2 µM (inactive)	17.9 µM (inactive)	7.11 µM (inactive)	14.1 µM (inactive)	20 µM (inactive)	16.1	26.4 µM (inactive)	27.4 µM (inactive)	18.1 µM (inactive)	12.7 µM (inactive)	21.5 µM (inactive)	20.7 µM (inactive)	19.4 µM (inactive)
COc1ccc2c(C)cc(C)nc2n1	> 100 µM (inactive)	> 100 µM (inactive)	> 100 µM (inactive)	> 100 µM (inactive)	> 100 µM (inactive)	> 100 µM (inactive)	> 100 µM (inactive)	> 100 µM (inactive)	> 100 µM (inactive)	> 100 µM (inactive)	> 100 µM (inactive)	> 100 µM (inactive)	> 100	> 100 µM (inactive)	> 100 µM (inactive)	> 100 µM (inactive)	> 100 µM (inactive)		> 100 µM (inactive)	> 100 µM (inactive)
COc1ccc2oc(S(=O)(=O)N3CC(CCl)c4ccc(N)cc43)cc2c1 (centres undefined)	9.77 µM (inactive)	0.0482 µM (active)	46.8 µM (inactive)	54.1 µM (inactive)	0.0255 µM (active)	0.118 µM (active)	0.0662 µM (active)	8.79 µM (inactive)	0.565 µM (active)	0.0104 µM (active)	0.019 µM (active)	0.0445 µM (active)	0.023	1.48 µM (inactive)	0.108 µM (active)	0.043 µM (active)	2.01 µM (inactive)	2.01 µM (inactive)	0.0299 µM (active)	0.766 µM (active)
O=C1c2ccccc2C(=O)c2nn(N=P(CP(=Nn3nc4c(n3)C(=O)c3ccccc3C4=O)(c3ccccc3)c3ccccc3)(c3ccccc3)c3ccccc3)nc21	> 100 µM (inactive)	> 100 µM (inactive)	> 100 µM (inactive)	> 100 µM (inactive)	> 100 µM (inactive)	> 100 µM (inactive)	> 100 µM (inactive)	96.8 µM (inactive)	> 100 µM (inactive)	> 100 µM (inactive)	> 100 µM (inactive)	> 100 µM (inactive)	> 100	> 100 µM (inactive)	> 100 µM (inactive)	> 100 µM (inactive)	> 100 µM (inactive)	> 100 µM (inactive)	> 100 µM (inactive)	> 100 µM (inactive)
[O-][n+]1c(CN2CCCCC2)nc2cccc3c2c1-c1ccccc1-3	31.3 µM (inactive)	23.7 µM (inactive)	27.2 µM (inactive)	68.5 µM (inactive)	18 µM (inactive)	15 µM (inactive)	15.7 µM (inactive)	25.1 µM (inactive)	19.6 µM (inactive)	22.4 µM (inactive)	16.1 µM (inactive)	23.5 µM (inactive)	26.9	18.2 µM (inactive)	26.1 µM (inactive)	14.3 µM (inactive)	23 µM (inactive)		31.3 µM (inactive)	18.4 µM (inactive)
c1ccc(C(c2cccc3c2ccc2ccccc23)C(c2ccccc2)c2cccc3c2ccc2ccccc23)cc1 (centres undefined)	> 100 µM (inactive)	> 100 µM (inactive)	> 100 µM (inactive)	> 100 µM (inactive)	> 100 µM (inactive)	> 100 µM (inactive)	> 100 µM (inactive)	> 100 µM (inactive)	> 100 µM (inactive)	> 100 µM (inactive)	> 100 µM (inactive)	> 100 µM (inactive)	> 100	> 100 µM (inactive)	> 100 µM (inactive)	> 100 µM (inactive)	> 100 µM (inactive)	> 100 µM (inactive)	> 100 µM (inactive)	> 100 µM (inactive)
CCOC(=O)CN1C(=O)c2c(NC(=O)C(=O)O)cccc2S1(=O)=O	> 100 µM (inactive)	> 100 µM (inactive)	> 100 µM (inactive)	> 100 µM (inactive)	> 100 µM (inactive)	> 100 µM (inactive)	> 100 µM (inactive)	> 100 µM (inactive)	> 100 µM (inactive)	> 100 µM (inactive)	> 100 µM (inactive)	> 100 µM (inactive)	> 100	> 100 µM (inactive)	> 100 µM (inactive)	> 100 µM (inactive)	> 100 µM (inactive)	> 100 µM (inactive)	> 100 µM (inactive)	> 100 µM (inactive)
O=C1/C(=C/c2ccc(F)cc2)CNC/C1=C\c1ccc(F)cc1	2.09 µM (inactive)	0.275 µM (active)	2.21 µM (inactive)	1.05 µM (active)	0.675 µM (active)	0.214 µM (active)	2.92 µM (inactive)	3.61 µM (inactive)	1.78 µM (inactive)	1.95 µM (inactive)	1.42 µM (inactive)	0.667 µM (active)	0.498	2.25 µM (inactive)	6.92 µM (inactive)	3.28 µM (inactive)	2.39 µM (inactive)	0.818 µM (active)	1.79 µM (inactive)	3.76 µM (inactive)
N#CC(C#N)=Cn1c(=S)[nH]c2ccccc21	> 100 µM (inactive)	> 100 µM (inactive)	> 100 µM (inactive)	> 100 µM (inactive)	> 100 µM (inactive)	> 100 µM (inactive)	> 100 µM (inactive)	77.8 µM (inactive)	> 100 µM (inactive)	> 100 µM (inactive)	> 100 µM (inactive)	> 100 µM (inactive)		> 100 µM (inactive)	> 100 µM (inactive)	> 100 µM (inactive)	> 100 µM (inactive)	> 100 µM (inactive)	> 100 µM (inactive)	> 100 µM (inactive)
COC(=O)[C@]1(C)CCC[C@@]2(C)[C@@H]3C[C@@H]4[C@H]5C[C@@]3(CC[C@@H]21)C[C@@]45C	13.8 µM (inactive)	10.3 µM (inactive)	15.1 µM (inactive)	17.5 µM (inactive)		17.3 µM (inactive)	14.1 µM (inactive)	15.2 µM (inactive)	17.8 µM (inactive)	17.9 µM (inactive)	17.2 µM (inactive)	19.3 µM (inactive)	16.2	17.2 µM (inactive)	14.7 µM (inactive)	22.2 µM (inactive)	15.6 µM (inactive)	17.9 µM (inactive)	15.2 µM (inactive)	15.4 µM (inactive)
O=S(=O)(O)c1ccc(Nc2ccnc3cc(Cl)ccc23)cc1	> 100 µM (inactive)	> 100 µM (inactive)	> 100 µM (inactive)	> 100 µM (inactive)		> 100 µM (inactive)	> 100 µM (inactive)	> 100 µM (inactive)	> 100 µM (inactive)	> 100 µM (inactive)	> 100 µM (inactive)	> 100 µM (inactive)	> 100	> 100 µM (inactive)	> 100 µM (inactive)	> 100 µM (inactive)	> 100 µM (inactive)	> 100 µM (inactive)	> 100 µM (inactive)	> 100 µM (inactive)
